Data as given in ChEMBL document CHEMBL4411288, “Design, synthesis and biological evaluation of novel 7-amino-[1,2,4]triazolo[4,3-f]pteridinone, and 7-aminotetrazolo[1,5-f]pteridinone derivative as potent antitumor agents” (Eur J Med Chem, 2019).
Active and inactive are the calls of the source. No cut-off for these calls is given here.

Experiments:
A549 [1] = test: Cell cycle arrest in human A549 cells assessed as accumulation at S phase at 1 uM after 24 hrs by propidium iodide staining based flow cytometric analysis (reference value: 29.93%); type: functional
A549 [2] = test: Antimigratory activity in human A549 cells assessed as inhibition of wound healing up to 36 hrs by fluorescence microscopic method; type: functional, cell-based
A549 [3] = test: Antimigratory activity in human A549 cells assessed as wound healing at 0.2 uM after 24 hrs by fluorescence microscopic method (reference value: 58.5%); type: functional
A549 [4] = test: Induction of apoptosis in human A549 cells assessed as late apoptotic cells at 1 uM after 24 hrs by acridine orange/ethidium bromide staining-based fluorescence microscopic method; type: functional, cell-based
A549 [5] = test: Cell cycle arrest in human A549 cells assessed as accumulation at G2 phase at 0.2 uM after 24 hrs by propidium iodide staining based flow cytometric analysis (reference value: 6.73%); type: functional
A549 [6] = test: Cell cycle arrest in human A549 cells assessed as accumulation at S phase at 5 uM after 24 hrs by propidium iodide staining based flow cytometric analysis (reference value: 29.93%); type: functional
[7] = molecular target: Serine/threonine-protein kinase PLK1 (Homo sapiens) (UniProt P53350); test: Inhibition of recombinant human N-terminal His6-tagged PLK1 expressed in baculovirus infected Sf21 insect cells at 1 uM using FAM-labelled peptide as substrate preincubated for 10 mins followed by substrate addition measured after 1 hr relative to control
A549 [8] = test: Cell cycle arrest in human A549 cells assessed as accumulation at G1 phase at 0.2 uM after 24 hrs by propidium iodide staining based flow cytometric analysis (reference value: 63.34%); type: functional
A549 [9] = test: Antimigratory activity in human A549 cells assessed as wound healing at 1 uM after 24 hrs by fluorescence microscopic method (reference value: 58.5%); type: functional
A549 [10] = test: Cell cycle arrest in human A549 cells assessed as accumulation at G1 phase at 1 uM after 24 hrs by propidium iodide staining based flow cytometric analysis (reference value: 63.34%); type: functional
HCT-116 = test: Cytotoxicity against human HCT116 cells assessed as reduction in cell viability after 72 hrs by MTT assay; type: functional, cell-based; conditions: HCT-116, 72 h
A549 [11] = test: Antimigratory activity in human A549 cells assessed as wound healing at 0.2 uM after 36 hrs by fluorescence microscopic method (reference value: 100%); type: functional
A549 [12] = test: Cytotoxicity against human A549 cells assessed as reduction in cell viability after 72 hrs by MTT assay; type: functional, cell-based; conditions: A549, 72 h
PC-3 = test: Cytotoxicity against human PC3 cells assessed as reduction in cell viability after 72 hrs by MTT assay; type: functional, cell-based; conditions: PC-3, 72 h
MCF7 = test: cells; conditions: Homo sapiens, MCF7, 72 h
Description: Cytotoxicity against human MCF7 cells assessed as reduction in cell viability after 72 hrs by MTT assay

A549 [13] = test: Induction of apoptosis in human A549 cells assessed as late apoptotic cells at 5 uM after 24 hrs by acridine orange/ethidium bromide staining-based fluorescence microscopic method; type: functional, cell-based
A549 [14] = test: Cell cycle arrest in human A549 cells assessed as accumulation at G2 phase at 5 uM after 24 hrs by propidium iodide staining based flow cytometric analysis (reference value: 6.73%); type: functional
A549 [15] = test: Antimigratory activity in human A549 cells assessed as wound healing at 0.2 uM after 12 hrs by fluorescence microscopic method (reference value: 26.2%); type: functional
A549 [16] = test: Cell cycle arrest in human A549 cells assessed as accumulation at S phase at 0.2 uM after 24 hrs by propidium iodide staining based flow cytometric analysis (reference value: 29.93%); type: functional
A549 [17] = test: Cell cycle arrest in human A549 cells assessed as accumulation at G1 phase at 5 uM after 24 hrs by propidium iodide staining based flow cytometric analysis (reference value: 63.34%); type: functional
A549 [18] = test: Cell cycle arrest in human A549 cells assessed as accumulation at G2 phase at 1 uM after 24 hrs by propidium iodide staining based flow cytometric analysis (reference value: 6.73%); type: functional
A549 [19] = test: Antimigratory activity in human A549 cells assessed as wound healing at 1 uM after 12 hrs by fluorescence microscopic method (reference value: 26.2%); type: functional
A549 [20] = test: Antimigratory activity in human A549 cells assessed as wound healing at 1 uM after 36 hrs by fluorescence microscopic method (reference value: 100%); type: functional
MDA-MB-231 = test: cells; conditions: Homo sapiens, MDA-MB-231, 72 h
Description: Cytotoxicity against human MDA-MB-231 cells assessed as reduction in cell viability after 72 hrs by MTT assay

Chain of Serine/threonine-protein kinase PLK1 (Homo sapiens) (P53350 whole entry): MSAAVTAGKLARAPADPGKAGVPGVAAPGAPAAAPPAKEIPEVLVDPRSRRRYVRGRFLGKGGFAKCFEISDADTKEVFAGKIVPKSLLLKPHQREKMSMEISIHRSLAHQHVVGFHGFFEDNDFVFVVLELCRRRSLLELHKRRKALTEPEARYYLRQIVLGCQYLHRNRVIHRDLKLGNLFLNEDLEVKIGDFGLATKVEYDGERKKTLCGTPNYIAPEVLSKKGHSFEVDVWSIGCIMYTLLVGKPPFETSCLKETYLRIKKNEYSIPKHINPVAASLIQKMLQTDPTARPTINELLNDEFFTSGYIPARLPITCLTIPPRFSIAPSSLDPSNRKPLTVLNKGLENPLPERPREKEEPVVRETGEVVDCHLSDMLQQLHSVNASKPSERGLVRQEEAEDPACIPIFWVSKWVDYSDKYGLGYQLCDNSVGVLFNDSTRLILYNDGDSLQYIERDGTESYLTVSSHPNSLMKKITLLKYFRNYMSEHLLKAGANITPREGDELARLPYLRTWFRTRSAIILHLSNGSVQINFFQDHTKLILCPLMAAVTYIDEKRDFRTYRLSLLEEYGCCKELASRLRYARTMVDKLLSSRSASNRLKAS

SMILES: Cc1nnc2c(=O)n(C3CCCC3)c3nc(Nc4ccc(N5CC(C)NC(C)C5)cc4)ncc3n12 (centres undefined)
- Activity (A549 [1]): 14.54%
- inhibition (A549 [2]): Dose-dependent effect
- Activity (A549 [3]): 33.7%
- Activity (A549 [4]): Active
- Activity (A549 [5]): 4.55%
- Activity (A549 [6]): 13.37%
- inhibition [7]: 86.4%
- Activity (A549 [8]): 74.99%
- Activity (A549 [9]): 27.8%
- Activity (A549 [10]): 79.82%
- IC50 (HCT-116): 300 nM
- Activity (A549 [11]): 51.4%
- IC50 (A549 [12]): 160 nM
- IC50 (PC-3): 510 nM
- IC50 (MCF7): 300 nM
- Activity (A549 [13]): Active
- Activity (A549 [14]): 4.32%
- Activity (A549 [15]): 25.1%
- Activity (A549 [16]): 20.46%
- Activity (A549 [17]): 82.32%
- Activity (A549 [18]): 5.64%
- Activity (A549 [19]): 24.4%
- Activity (A549 [20]): 43.1%
- IC50 (MDA-MB-231): 700 nM
